Laboratory results reported in publication PMC11345829, “Discovery of Potent Isoquinolinequinone N-Oxides to Overcome Cancer Multidrug Resistance” (Journal of Medicinal Chemistry, 2024).

Legend:
Type in all cases: cell-based, human
NCI-H460 cells [1] = experiment: BrdU incorporation assay (cell proliferation); conditions: 48 h; 25 at 0.35 and 0.7 μM; doxorubicin 50 nM
Description: To assess the impact of compound 25 on cell proliferation, the bromodeoxyuridine (BrdU) incorporation assay was performed.
Figure 7 Effect of compound 25 on the % of proliferating NCI-H460 cells, determined with the BrdU assay. […] (A) Percentage of BrdU-incorporating cells under different treatments. Results are the mean ± SEM from at least 3 independent experiments. * p ≤ 0.05, ** p ≤ 0.01, when comparing DMSO vs compound treatment.
At 4 h before the end of this treatment, cells were incubated with 1 μM of BrdU (Merck Life Science). After collection of cells, they were fixed with paraformaldehyde 4% (Merck Life Science) for 40 min at room temperature (RT). Then, cells were subjected to a cytospin (500 rpm for 5 min), and cellular DNA was denaturated using 2 M of HCl (Merck Life Science) for 20 min. Cells were incubated with a PBS solution containing 0.5% Tween (Promega, Madison, Wisconsin, USA) and 0.05% bovine serum albumin (BSA; Merck Life Science). The cells were further incubated with a primary monoclonal mouse anti-BrdU Clone Bu20a antibody (1:10; Dako, Glostrup, Denmark) for 1 h, followed by incubation with a polyclonal rabbit antimouse immunoglobulins/FITC secondary antibody (1:100; Dako) for 30 min at RT. […] The cells were counted using the ImageJ 2.1.0 software.

NCI-H460 cells [2] = experiment: Cell cycle profile, PI staining flow cytometry; conditions: 48 h; for cell cycle profile: 25 at 0.35 and 0.7 μM, doxorubicin 50 nM
Description: The effect of 25 on the cell cycle profile of NCI-H460 cells was assessed.
Figure 8 Effect of compound 25 on the cell cycle profile of NCI-H460 cells, analyzed by flow cytometry (PI staining). […] (A) Frequency (%) of cell cycle phases for each condition. (B) Representative cell cycle histograms. Results are the mean ± SEM from at least 3 independent experiments. * p ≤ 0.05, when comparing DMSO vs compound treatment.
Collected cells were then fixed in ice-cold 70% ethanol (Fisher Scientific) overnight. Cells were then centrifuged again and resuspended in 5 μg/mL of PI (Merck Life Science) and 0.1 mg/mL RNase A (Invitrogen) in PBS, and kept in the dark for at least 30 min. Cellular DNA content was analyzed using the BD Accuri C6 Flow cytometer. At least 10 000 events per sample were acquired. FlowJo 7.6.5 software (Tree Star, Inc., Ashland, Oregon, USA) was used to determine the % of cells in the different phases of the cell cycle.

NCI-H460 spheroids = experiment: Cell Titer-Glo 3D spheroid viability assay; conditions: 48 h; 25 at 0.35 and 0.7 μM; doxorubicin 50 nM
From the text: Figure 12 Effect of compound 25 on the viability of spheroids established from two counterpart pairs of sensitive and MDR cell lines, from NSCLC (NCI-H460 and NCI-H460/R) and colorectal cancer (DLD1 and DLD1-TxR), using MicroTissue 3D Petri dishes. […] (B) Effect of compound 25 on the viability of NCI-H460 spheroids analyzed by Cell Titer-Glo 3D viability assay. (C) Effect of compound 25 on the viability of NCI-H460/R spheroids analyzed with the Cell Titer-Glo 3D viability assay. Results are presented as the % of luciferase luminescence relative to the “blank” cells (medium). […] (E) Effect of compound 25 on the viability of DLD1 spheroids analyzed by Cell Titer-Glo 3D viability assay. (F) Effect of compound 25 on the viability of DLD1-TxR spheroids analyzed with the Cell Titer-Glo 3D viability assay. Data are expressed as mean ± SEM from 3 independent experiments. * p ≤ 0.05 and ** p ≤ 0.01, when comparing DMSO vs compound treatment.
Spheroid formation was conducted in 12-series agarose 3D Petri Dish micromolds (MicroTissues Technology, MicroTissues Inc., Sigma-Aldrich). The agarose micromolds were prepared using 1% agarose in a 0.9% NaCl solution and then placed in 12-well plates and equilibrated with RPMI supplemented with 10% FBS for at least 2 h before cell seeding. Cell suspensions corresponding to 500 cells per spheroid of the NSCLC cell lines (NCI-H460 and NCI-H460/R), and 1000 cells per spheroid of the colorectal cancer cell lines (DLD1 and DLD1-TxR) were seeded in the corresponding micromolds. The choice of cell seeding concentration was based on a previous optimization assay (data not shown), ensuring that at the end of the assay the spheroids would have a size of around 400 μm. A 20 min incubation period was used for cells to settle into the micromolds and additional medium was finally added to the wells. Spheroid formation was monitored with the Leica DMi1 microscope. […] At the end of the treatment, images from at least 8 different spheroids per condition were captured on the Leica Dmi1 microscope, and posteriorly analyzed with the automated open-source software AnaSP.[82] Spheroid parameters, such as equivalent diameter, circularity, and compactness, were calculated.
Spheroid viability was determined through the luminescence-based Cell Titer-Glo 3D cell viability assay (Promega). Spheroids grown on MicroTissues 3D Petri Dish micromolds were exposed to the treatments, as described in the previous section. Then, the spheroids were transferred into 96-well plates in 50 μL of RPMI medium. […] The plate was then incubated in the dark for 5 min with agitation and allowed to rest for 25 min before luminescence measurement. Luminescence was quantified using the microplate reader Synergy MX coupled with the GEN5 software. […]

SMILES	percentage of proliferating (BrdU-incorporating) cells (NCI-H460 cells [1])	cells in sub-G1 phase (NCI-H460 cells [2]; 0.35 and 0.7 μM)	cell cycle profile (NCI-H460 cells [2])	viability of NCI-H460 spheroids (NCI-H460 spheroids)
COC(=O)c1c2c(c[n+]([O-])c1C)C(=O)C=C(NCc1ccccc1)C2=O [Compound 25]	significantly reduced the percentage of NCI-H460 proliferating cells	slight increase in the percentage of cells in the sub-G1 phase, although not statistically significant	increase in the G1 phase and decrease in the S phase	significant decrease in the viability of the spheroids
COc1cccc2c1C(=O)c1c(O)c3c(c(O)c1C2=O)C[C@@](O)(C(=O)CO)C[C@@H]3O[C@H]1C[C@H](N)[C@H](O)[C@H](C)O1 [doxorubicin, reference compound]	significantly reduced the percentage of NCI-H460 proliferating cells	–	major alterations in the cell cycle profile	did not significantly affect the viability of the spheroids
